Measurements published in patent US8828456B2, “Method of external skin application of composition containing red pine root extract” (Amorepacific Corporation, priority 2009, dated 2014).

Assay: Free radical removal activity (DPPH method)
Type: biochemical
Protocol: Specifically, each of the extracts obtained in Example 1 and Comparative Example 1 was diluted in ethanol to varying concentrations (0, 50, 100, 200, 300 and 400 μg/mL), and 10 μl of each dilution was added to each well of a 96-well plate. A solution of 5 mM DPPH in ethanol was added to each well to a total volume of 200 μl. The resulting solution was incubated at 37° C. for 30 minutes, and then measured at 520 nm using an ELISA reader (DI Biotech, Korea). Based on the measured absorbance, free radical removal activity was calculated according to the following Equation 1. As a positive control, vitamin C known to have excellent antioxidant activity was used. Radical removal activity (%)=absorbance of control-absorbance of sample/absorbance of control×100 Equation 1

SMILES: O=C1O[C@H]([C@@H](O)CO)C(O)=C1O [Vitamin C, vitamin C]
- Radical Removal Activity (%) (50 μg/mL): 30%
- Radical Removal Activity (%) (100 μg/mL): 90%
- Radical Removal Activity (%) (200 μg/mL): 91%
- Radical Removal Activity (%) (300 μg/mL): 90%
- Radical Removal Activity (%) (400 μg/mL): 90%
